Measured values reported in article PMC7822123, “A Chemosensory Protein Detects Antifeedant in Locust (Locusta migratoria)” (Insects, 2020).
“Also recorded” adds a separate entry of the source. Where two headings read alike, the source gives them in different places.

Columns and labels:
recombinant LmigCSPIII [1] = molecular target: T1, recombinant LmigCSPIII (Locusta migratoria, UniProt Q3LB86); experiment: Fluorescent competitive binding assay with 1-NPN as reporter; details: for binding affinity to LmigCSPIII (in words): among 78 tested compounds
T1 sequence (Q3LB86 entry or part of it): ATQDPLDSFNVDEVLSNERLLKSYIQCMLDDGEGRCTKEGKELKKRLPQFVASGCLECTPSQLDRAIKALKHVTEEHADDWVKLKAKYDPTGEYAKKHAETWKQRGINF
Experimental: Compounds (Table 2) used in the binding assay were purchased from Sigma (St. Louis, MO, USA) and were of reagent grade. Ligand binding specificity was measured with a fluorescent assay on an FS-55 emission fluorescence spectrometer (Perkin-Elmer, Waltham, MA, USA), as previously described. […] The recombinant protein was dissolved in 50 mM Tris-Buffer (pH 7.4) and titrated with aliquots of 1 mM methanol solutions of the ligands to final concentrations of […]. The florescent probe 1-NPN was excited at 337 nm and emission spectra were recorded between 380 nm and 440 nm. We used Graphpad Prism 5 software (Graphpad Software, San Diego, CA, USA) to calculate dissociation constants and draw the binding curves.

recombinant LmigCSPIII [2] = molecular target: T1, recombinant LmigCSPIII; experiment: as above; details: at a concentration of 10 µM
[3] = test system: Locusta migratoria nymphs; details: third instar, 100 μg/cm^2, after 3 or 4 days, vs control, p < 0.001
[4] = test system: Locusta migratoria fourth instar nymphs; experiment: Dual-choice feeding assay with LmigCSPIII knockdown (dsRNA) and H2O-injected locusts; format: in vivo
Experimental: (§1) For the dual-choice experiment, the feeding deterrence index (FDI) was calculated using the formula: FDI = (C − T)/(C + T), where C and T indicated control and treated leaf consumption weights, respectively. For non-choice experiment, the FDI was calculated using the formula: FDI = (C − T)/C. A regression curve line against feeding deterrence index was created by Graphpad Prism 9 software (Graphpad Software, San Diego, CA, USA). The DC50 was defined as the concentration of AMCAL that halved the value of the feeding deterrence index.
Double-stranded RNA was synthesized using the T7 RiboMAX™Express RNAi System (Promega, Madison, WI, USA), according to the manufacturer’s protocol. Briefly, we designed degenerate primers with a T7 promoter (Table 1) at the 5′ end based on an alignment of multiple LmigCSPIII sequences. The PCR-amplified fragment was purified and used as a template in the transcription reactions. After removing the DNA template and single-stranded RNA using a nuclease, we quantified the newly synthesized dsRNA and adjusted its concentration to 2.5 µg/µL. Locusts were anaesthetized on ice for easier handling during the injection process. dsRNA (2 µL) or DEPC (Diethy Pyrocarbonate) treated water (2 µL, Sangon Biotech) was injected into the dorsal intrasegmental membrane between the third and fourth abdominal segments of newly-molted third or fourth instar locusts using a microsyringe (Narishige, Tokyo, Japan), similarly to previous experiments.
The treatments and calculation methods for detecting the effects of suppression of LmigCSPIII on locusts are similar to in the dual-choice experiment.
To determine the effects of RNAi of LmigCSPIII on its role in detecting AMCAL, we created mutants by injecting with dsRNA of LmigCSPIII into fourth instar nymphs within 2 days after molting. These locusts were then provided with the corn leaves treated with AMCAL or solvent 72 h after injection. The duration of the experiment was 2 h.

[5] = test system: Locusta migratoria fourth instar nymphs; experiment: Dual-choice feeding assay, feeding response with intact or excised antennae; format: in vivo
Experimental: For the role of antenna or mouthparts in the detection of AMCAL, a dual-choice experiment was performed. Newly molted fourth instar locusts of similar weights were anesthetized on ice for several minutes. Antennae were carefully removed with fine scissors, and then the locusts were fed with fresh corn leaves for 24 h. The locusts were then placed in feeding boxes, each of which contained two pieces of corn leaves of the same size of 4 × 3 cm, one treated with AMCAL in solvent, and the other one treated with solvent alone. The two pieces of corn leaves were placed about 12 cm apart. Feeding response (FR) was defined as follows: a leaf that was ingested, regardless of amount, was scored as 1, whereas no consumption was scored as 0. The experimental duration was about 1 h. When approximately 50% of the control foliage had been consumed, the experiment was terminated, and the feeding amount was determined as described above.

[6] = test system: Locusta migratoria fourth instar nymphs; experiment: Feeding bioassay: amount consumed and feeding deterrence index; format: in vivo
Experimental: New emerged fourth instar locust nymphs were starved 2 h before being introduced into a transparent plastic box (14 cm diameter, 8 cm high). For the non-choice experiment, the locusts were then supplied with two pieces of corn leaf (3 × 5 cm) of the same weight. One piece of the leaf was treated with an acetone solution of α-amylcinnamaldehyde (AMCAL) after the acetone evaporated completely, and the control leaf was just treated with same amount of actone. The natural concentrations of AMCAL found in non-host plants is usually less than 0.1% in weight. According to this, acetone solutions of AMCAL at concentrations of […] were used to treat corn leaves with a final concentration of 100 μg/cm^2, 50 μg/cm^2, 10 μg/cm^2, or 1 μg/cm^2, respectively.
Food consumption (S) was determined by the fresh/dry weight method as follows: a fresh corn leaf was cut in half from the main vein and weighted separately; one half was dried at 100 °C for 2 h to calculate fresh/dry weight ratio, calculated as R [34]; the other half, whose fresh weight was S1, was reserved for the feeding experiment. After feeding duration, the residual consumed leaf was dried and weighed as above, and the dry weight was labelled as S2. Food consumption was calculated as: S = S1/R − S2.
as §1

desert locust = test system: desert locust; design: method as in PMID 12770479; details: 7 µg/g body weight; cited from earlier work
[7] = criterion for being regarded as able to bind, Figure 4, read-out: IC50 (concentration of ligand that halved the initial fluorescence of 1-NPN)

SMILES: CC(O)c1ccccc1 (racemic) [DL-sec-phenethyl alcohol]
- IC50 (recombinant LmigCSPIII [1]; [7]): < 20 µM

SMILES: c1ccc(Nc2cccc3ccccc23)cc1 [1-NPN, N-phenyl-1-naphthylamine, reference compound]
- Kd (recombinant LmigCSPIII [1]): 3.3 µM

SMILES: Nc1cccc2cc3ccccc3cc12 [1-aminoanthracene]
- binding affinity to LmigCSPIII (in words) (recombinant LmigCSPIII [1]): strongest affinity

SMILES: Cc1cnc(C)cn1 [2,5-Dimetylpyrazine]
- IC50 (recombinant LmigCSPIII [1]; [7]): < 20 µM

SMILES: CCCCCC(C)=O [2-heptanone]
- IC50 (recombinant LmigCSPIII [1]; [7]): < 20 µM
- displacement of 1-NPN from LmigCSPIII (recombinant LmigCSPIII [2]): able to displace 1-NPN

SMILES: CC(C)CCO [3-Methyl-1-butanol]
- Kd (recombinant LmigCSPIII [1]; calculated from IC50 of 1-NPN displacement, read-out: dissociation constant (KD) of competitor): 6.02 ± 0.17 µM
- IC50 (recombinant LmigCSPIII [1]; [7]): < 20 µM

SMILES: CCCCC/C(C=O)=C/c1ccccc1 [AMCAL, α-amylcinnamaldehyde]
- binding affinity to LmigCSPIII (in words) (recombinant LmigCSPIII [1]): strongest affinity; also recorded: highest affinity
- IC50 (recombinant LmigCSPIII [1]; [7]): < 20 µM
- weight increase of nymphs [3]: significantly less than that of the control group
- feeding deterrence index (FDI) ([4]; 1 μg/cm^2, RNAi group): −2%
- feeding deterrence index (FDI) ([4]; 10 μg/cm^2, control group (H2O-injected locusts)): 50%
- feeding deterrence index (FDI) ([4]; 10 μg/cm^2, locusts injected with dsRNA of LmigCSPIII): 22%
- feeding deterrence index (FDI) ([4]; 50 μg/cm^2, RNAi group): 69%
- Feeding response (FR) to treated leaves ([5]; 50 μg/cm^2, antennae excised): 45%
- Feeding response (FR) to treated leaves ([5]; 50 μg/cm^2, antennae intact): 47%
- mean consumption of food containing the chemical ([6]; 1 μg/cm^2, p > 0.05, Dunnett test): slight and insignificant decrease
- mean consumption of food containing the chemical ([6]; 10 μg/cm^2, p < 0.01, Dunnett test): Significant feeding inhibition
- DC50 (concentration that halved the feeding deterrence index) ([6]; from regression curve of feeding deterrence index, Figure 5D): 12 μg/cm^2

SMILES: O=Cc1ccccc1 [Benzaldehyde]
- IC50 (recombinant LmigCSPIII [1]): < 20 µM

SMILES: N#CCc1ccccc1 [Benzeneacetonitrile]
- IC50 (recombinant LmigCSPIII [1]): < 20 µM

SMILES: OC1CCCCC1 [Cyclohexanol]
- IC50 (recombinant LmigCSPIII [1]): < 20 µM

SMILES: CCCCOC(=O)c1ccccc1C(=O)OCCCC [Dibutyl phthalate]
- IC50 (recombinant LmigCSPIII [1]): < 20 µM

SMILES: CCOC(=O)c1ccccc1C(=O)OCC [Diethyl phthalate]
- IC50 (recombinant LmigCSPIII [1]): < 20 µM

SMILES: C=C(C)C(=O)OCCCCCCCCCCCC [Dodecyl 2-methylacrylate]
- IC50 (recombinant LmigCSPIII [1]; [7]): < 20 µM

SMILES: COc1ccccc1O [Guaicacol]
- IC50 (recombinant LmigCSPIII [1]; [7]): < 20 µM

SMILES: CCCCCCCCCCCCCCCCCO [Heptadecanol]
- IC50 (recombinant LmigCSPIII [1]; [7]): < 20 µM

SMILES: CCCCCCCCCCCCCCCCO [Hexadecanol]
- IC50 (recombinant LmigCSPIII [1]; [7]): < 20 µM

SMILES: CCCCCCCCCCCCCCCO [Pentadecanol]
- IC50 (recombinant LmigCSPIII [1]; [7]): < 20 µM

SMILES: Oc1ccccc1 [Phenol]
- IC50 (recombinant LmigCSPIII [1]): < 20 µM

SMILES: C/C=C(\C)C(=O)O[C@H]1C[C@@H](OC(C)=O)[C@@]2(C(=O)OC)CO[C@H]3[C@@H](O)[C@@](C)([C@]45O[C@@]4(C)[C@H]4C[C@@H]5O[C@@H]5OC=C[C@@]54O)[C@H]4[C@]1(CO[C@]4(O)C(=O)OC)[C@@H]32 [azadirachtin]
- physiological effects in the desert locust (desert locust): reduces fitness and fertility, and interferes with molting

SMILES: CCCCCCCC/C=C\CCCCCCCC(N)=O [oleamide, Oleamide]
- IC50 (recombinant LmigCSPIII [1]): < 20 µM
- binding affinity to LmigCSPIII (in words) (recombinant LmigCSPIII [1]): quite high binding affinity

SMILES: CCC/C=C/C=O [trans-2-hexenal, trans-2-Hexenal]
- IC50 (recombinant LmigCSPIII [1]): < 20 µM
- displacement of 1-NPN from LmigCSPIII (recombinant LmigCSPIII [2]): able to displace 1-NPN
